Source: article PMC6792352, “Limited Chemical Structural Diversity Found to Modulate Thyroid Hormone Receptor in the Tox21 Chemical Library” (Environmental Health Perspectives, 2019)
Structures can show the parent of a compound that is named as a salt.

Assay: in vitro
Conditions: rat, gh3-tre-luc cells, AC50 (uM) modified / 1000

SMILES | CC50 at 24 h
O=C(Cn1cnnn1)N[C@@H]1C(=O)N2C(C(=O)O)=C(CSc3nncs3)CS[C@H]12 [Ceftezole sodium] | > 50 µM
CCCC[n+]1ccccc1C [1-Butyl-2-methylpyridinium bromide] | > 90 µM
COC(=O)C1CCC(C(=O)OC)CC1 (stereo not drawn) [Dimethyl hexahydroterephthalate] | > 90 µM
Cc1ccc(C=O)s1 [5-Methyl-2-thiophenecarboxaldehyde] | > 90 µM
OC[C@H]1O[C@H](O[C@@]2(CO)O[C@@H](O)[C@H](O)[C@@H]2O)[C@H](O)[C@@H](O)[C@@H]1O [alpha-L-Lyxo-hex-5-ulofuranosyl alpha-D-glucopyranoside] | > 50 µM
CC(C)(C)c1ccc(S)cc1 [4-tert-Butylbenzenethiol] | > 90 µM
C[Si](C)(C)C [Tetramethylsilane] | > 90 µM
CCCCCCCC1CCCC1=O (stereo not drawn) [2-Heptylcyclopentanone] | > 90 µM
O=C(O)CNC(=O)c1ccccc1I [2-Iodohippuric acid] | > 50 µM
CCCCCCCCC=O [Nonanal] | > 90 µM
COC(F)(F)C(Cl)Cl [Methoxyflurane] | > 50 µM
CCCCO [1-Butanol] | > 90 µM
CC[C@@H](CO)NC(=O)[C@@H]1C=C2c3cccc4c3c(cn4C)C[C@H]2N(C)C1 [Methysergide] | > 50 µM
N#CC1(O)CCCCC1 [Cyclohexanone cyanohydrin] | > 90 µM
COc1ccc2c(c1)C(=O)N(CCc1ccc(S(=O)(=O)NC(=O)NC3CCCCC3)cc1)C(=O)C2(C)C [Gliquidone] | > 20 µM
CC(C)CCCC(C)(C)O [2,6-Dimethyl-2-heptanol] | > 90 µM
O=C(Nc1ccc(Cl)cc1)Nc1ccc(Cl)c(C(F)(F)F)c1 [Cloflucarban] | 6.22 µM
C=CC(=O)OCC(CC)CCCC (stereo not drawn) [2-Ethylhexyl acrylate] | > 90 µM
CC(C)(C)c1ccccc1O [2-tert-Butylphenol] | > 90 µM
c1ccc(C2CC2)c(OCC2=NCCN2)c1 [Cirazoline] | > 50 µM
Cn1cc(C(=O)[C@@H]2CCc3nc[nH]c3C2)c2ccccc21 [Ramosetron hydrochloride] | > 50 µM
CSc1ccc2c(c1)C(N1CCN(C)CC1)Cc1ccccc1S2 (stereo not drawn) [Metitepine] | 5.16 µM
CCC1(c2cnc[nH]2)Cc2ccccc2C1 [Atipamezole hydrochloride] | > 50 µM
CCCCN1C(=O)[C@@H]([C@H](O)C2CCCCC2)NC(=O)C12CCN(Cc1ccc(Oc3ccc(C(=O)O)cc3)cc1)CC2 [Aplaviroc hydrochloride] | 77.3 µM
CCOCCOC(C)=O [2-Ethoxyethyl acetate] | > 90 µM
CCCCCCCCBr [1-Bromooctane] | > 90 µM

SMILES | CC50 at 24 h
CN(C)C(=O)Oc1cc(OC(=O)N(C)C)cc(C(O)CNC(C)(C)C)c1 (stereo not drawn) [Bambuterol hydrochloride] | > 20 µM
Cc1ccccc1CCO [2-Methylphenethyl alcohol] | > 90 µM
Clc1cccc(-c2cc(Cl)cc(Cl)c2)c1 [Aroclor 1016] | > 90 µM
CCOC(=N)CC(=O)OCC [Ethyl 3-ethoxy-3-iminopropionate hydrochloride] | > 90 µM
CCN[C@@H]1C[C@H](N)[C@@H](O[C@H]2OC(CN)=CC[C@H]2N)[C@H](O)[C@H]1O[C@H]1OC[C@](C)(O)[C@H](NC)[C@H]1O [Netilmicin sulfate] | > 50 µM
Cc1ccccc1C [o-Xylene] | > 90 µM
c1cnc2cc3c(cc2n1)[C@@H]1CNC[C@H]3C1 [Varenicline tartrate] | > 50 µM
Cc1ccc(C(=O)O)cc1 [4-Methylbenzoic acid] | > 90 µM
COCCCOCCCOC [Dipropylene glycol dimethyl ether] | > 90 µM
CCN(CC)C(=O)C(C)Oc1cccc2ccccc12 (stereo not drawn) [Napropamide] | > 90 µM
C=CCC1([C@H](C)CCC)C(=O)NC(=O)NC1=O [R-(+)-Secobarbital] | > 90 µM
Cc1ccc(C(C)C)cc1O [Isopropyl-o-cresol] | > 90 µM
O=S(=O)(O)c1ccc2cc(O)c(S(=O)(=O)O)cc2c1 [Disodium 3-hydroxynaphthalene-2,7-disulfonate] | > 90 µM
O=C=Nc1ccc(Cl)cc1 [4-Chlorophenyl isocyanate] | > 90 µM
COc1cc(C(=O)NC2CCCNC2)cc(OC)c1OC (stereo not drawn) [Troxipide] | > 50 µM
c1ccc2sc(SN(C3CCCCC3)C3CCCCC3)nc2c1 [N,N-Dicyclohexyl-2-benzothiazolesulfenamide] | > 100 µM
CC1(C)Cc2cccc(O)c2O1 [2,3-Dihydro-2,2-dimethyl-7-benzofuranol] | > 100 µM
CCN(CC)C(=O)c1cccc(C)c1 [DEET] | > 90 µM
C[N+]1(C)[C@@H]2CC(OC(=O)[C@H](CO)c3ccccc3)C[C@H]1[C@@H]1O[C@@H]12 (stereo partly drawn) [Scopolamine methylbromide] | > 50 µM
CN(C)c1nc(=O)n(C2CCCCC2)c(=O)n1C [Hexazinone] | > 100 µM
CC1=CC(C)C(C=O)C(C)C1 (stereo not drawn) [Isocyclocitral] | > 90 µM
N[C@H](C(=O)O)[C@H](O)c1ccc(O)c(O)c1 [Droxidopa] | > 50 µM
CCOS(C)(=O)=O [Ethyl methanesulfonate] | > 90 µM
CC(C)CC(=O)CC(C)C [Diisobutyl ketone] | > 90 µM
CSc1ccc(C(=O)c2[nH]c(=O)[nH]c2C)cc1 [Enoximone] | > 50 µM
OC(CN1CCCCC1)c1cc(-c2ccccc2)on1 (stereo not drawn) [Perisoxal citrate] | > 50 µM

SMILES | CC50 at 24 h
CCCCCCCCCCCCCCCBr [1-Bromopentadecane] | > 50 µM
CO[C@H]1O[C@H](CO)[C@@H](O)[C@H](O)[C@H]1O [Methyl alpha-D-glucopyranoside] | > 90 µM
C=CCOC(=O)CCC1CCCCC1 [Prop-2-en-1-yl 3-cyclohexylpropanoate] | > 90 µM
Nc1ccc([N+](=O)[O-])cc1O [2-Amino-5-nitrophenol] | 82.7 µM
Nc1nc2nc[nH]c2c(=S)[nH]1 [6-Thioguanine] | > 90 µM
Cc1cc(C2CC2)nc(Nc2ccccc2)n1 [Cyprodinil] | 74.9 µM
C#C[C@]1(O)CC[C@H]2[C@@H]3CCc4cc(OC)ccc4[C@H]3CC[C@@]21C [Mestranol] | > 90 µM
CCC(CO)(CO)[N+](=O)[O-] [2-Ethyl-2-nitro-1,3-propanediol] | > 90 µM
COC(=O)[C@H]1[C@H]2C[C@@H]3c4[nH]c5cc(OC)ccc5c4CCN3C[C@H]2C[C@@H](OC(=O)/C=C/c2cc(OC)c(OC)c(OC)c2)[C@@H]1OC [Rescinnamine] | > 20 µM
Cc1ncc([N+](=O)[O-])n1C [1,2-Dimethyl-5-nitroimidazole] | > 90 µM
CCn1nc(C)c2c1C(=O)NCC(c1ccc(O)cc1)=N2 [PharmaGSID_47263] | > 90 µM
CS(=O)(=O)c1ccc([C@@H](O)[C@@H](COC(=O)CN)NC(=O)C(Cl)Cl)cc1 [Thiamphenicol glycinate hydrochloride] | > 50 µM
Nc1ccc(NC(=O)c2ccc(N)cc2)cc1 [4,4'-Diaminobenzanilide] | > 90 µM
CN(C)CCOCCN(C)CCO [2-[{2-[2-(Dimethylamino)ethoxy]ethyl}(methyl)amino]ethanol] | > 90 µM
CC(COCCO)OCCO (stereo not drawn) [Pluronic F-127] | > 80 µM
c1cc2ccc3ccc4ccc5cccc6c(c1)c2c3c4c56 [Benzo(g,h,i)perylene] | > 4 µM
OCC1(O)OC[C@@H](O)[C@@H](O)[C@@H]1O (stereo partly drawn) [D-Fructose] | > 50 µM
O=C(Cn1c(=O)sc2ccc(Cl)cc21)N1CCN(CCO)CC1 [Tiaramide hydrochloride] | > 50 µM
O=C(O)c1ccc2c(c1)C(=O)OC2=O [Trimellitic anhydride] | > 90 µM
O=C1CC(=O)NC(=O)N1 [Barbituric acid] | > 90 µM
CC(Cl)C(=O)O (stereo not drawn) [2-Chloropropanoic acid] | > 100 µM
C=CC(C)(O)CCC=C(C)C (stereo not drawn) [Linalool] | > 90 µM
COCCc1ccc(OCC(O)CNC(C)C)cc1 (stereo not drawn) [Metoprolol tartrate] | > 50 µM
CC1=CC(C)(C)Nc2ccccc21 [1,2-Dihydro-2,2,4-trimethylquinoline] | > 90 µM

Same assay, conditions: rat, gh3-tre-luc cells, AC50 (uM) modified / 1000, Tox21_110001=Tox21_111863; viability, 1 nM T3 present, 24 h

SMILES | CC50 at 24 h
CCCCCCCCCC(=O)O[C@H]1CC[C@H]2[C@@H]3CCC4=CC(=O)CC[C@]4(C)[C@H]3CC[C@]12C [Testosterone decanoate] | > 50 µM

Same assay, conditions: rat, gh3-tre-luc cells, AC50 (uM) modified / 1000, Tox21_110001=Tox21_112428; viability, 1 nM T3 present, 24 h

SMILES | CC50 at 24 h
CN1CCCC(=C(c2cccs2)c2cccs2)C1 [Tipepidine] | > 50 µM

Same assay, conditions: rat, gh3-tre-luc cells, AC50 (uM) modified / 1000, Tox21_110001=Tox21_200069; viability, 1 nM T3 present, 24 h

SMILES | CC50 at 24 h
CC(=O)NNc1ccccc1 [1-Acetyl-2-phenylhydrazine] | 7.15 µM

Same assay, conditions: rat, gh3-tre-luc cells, AC50 (uM) modified / 1000, Tox21_110001=Tox21_200105; viability, 1 nM T3 present, 24 h

SMILES | CC50 at 24 h
Oc1cc(Cl)c(Cl)c(Cl)c1Cl [2,3,4,5-Tetrachlorophenol] | 29.2 µM

Same assay, conditions: rat, gh3-tre-luc cells, AC50 (uM) modified / 1000, Tox21_110001=Tox21_200357; viability, 1 nM T3 present, 24 h

SMILES | CC50 at 24 h
C=C(Cl)Cl [1,1-Dichloroethylene] | > 100 µM

Same assay, conditions: rat, gh3-tre-luc cells, AC50 (uM) modified / 1000, Tox21_110001=Tox21_202866; viability, 1 nM T3 present, 24 h

SMILES | CC50 at 24 h
ClCCCCBr [1-Bromo-4-chlorobutane] | > 90 µM

Same assay, conditions: rat, gh3-tre-luc cells, AC50 (uM) modified / 1000, Tox21_110001=Tox21_300741; viability, 1 nM T3 present, 24 h

SMILES | CC50 at 24 h
N#Cc1ccncc1 [4-Pyridinecarbonitrile] | > 100 µM

Same assay, conditions: rat, gh3-tre-luc cells, AC50 (uM) modified / 1000, Tox21_110001=Tox21_302342; viability, 1 nM T3 present, 24 h

SMILES | CC50 at 24 h
Nc1ccc(N=Nc2ccc(-c3ccc(N=Nc4c(S(=O)(=O)O)cc5cc(S(=O)(=O)O)c(N=Nc6ccccc6)c(O)c5c4N)cc3)cc2)c(N)c1 [C.I. Direct Black 38] | > 60 µM
